Where “and” joins values, the source holds several entries; their conditions need not be identical. Equal entries are not always repeated.
Experiments:
[1] = tested on: CYP3A4; assay: CYP mRNA induction in cultured human hepatocytes; type: in vitro ADME; conditions: donors, HCS-40 individually
[2] = tested on: CYP1A2; assay: CYP mRNA induction in cultured human hepatocytes; type: in vitro ADME; conditions: donors AIH, EUJ, HC5-40 individually
[3] = tested on: CYP2B6; assay: CYP mRNA induction in cultured human hepatocytes; type: in vitro ADME; conditions: donors AIH, EUJ, HC5-40 individually
[4] = biological target: T1, CYP2D6 (Homo sapiens, UniProt P10635); assay: Single substrate DDI assay, reversible CYP inhibition in human liver microsomes; type: in vitro ADME
T1 construct: from tissue; host or cells: human liver microsomes

[5] = tested on: 2,3-DPG blood levels; assay: Phase 1: blood 2,3-DPG levels in SCD patients; type: in vivo, human
Description: In this study, SAD/MAD cohorts are randomized (3 to 1) to receive Compound 1 or placebo (P). Compound 1 was evaluated first in 4 healthy SAD cohorts and 4 healthy MAD (14-day dosing period) cohorts. Based on the safety, and PK/PD profile from HS, Compound 1 is then evaluated in 1 SCD SAD cohort and 2 SCD MAD cohorts. Specifically, based on the safety and pharmacokinetic/pharmacodynamics (PK/PD) profile in healthy volunteer studies, Compound 1 is evaluated in patients (pts) with SCD, first in a single dose (SD or SAD) cohort and then in multiple-dose (MD or MAD) cohorts (14-day and 12-week). Safety assessments include AEs, vital signs, ECGs and laboratory parameters. PK/PD blood sampling was performed on Day 1 (SAD/MAD) and Day 14 (MAD) and up to 72 h after the last dose and at the end-of-study visit. PD parameters included 2,3-DPG, ATP, and p50 in all cohorts with additional PD studies (including oxygen scan) performed only in the SCD cohorts. […]
The following table reports the mean percentage change in 2,3-DPG blood levels, relative to baseline, measured over time in SCD patients after a single dose of Compound 1 (700 mg):
The following table reports the mean percentage change in 2,3-DPG blood levels, relative to baseline, measured over time after the first dose on days 1 and 14 in SCD patients who received daily doses of Compound 1 (300 mg QD) for 14 days: […]

[6] = Preclinical safety: arrhythmia risk, mutagenicity, panels of receptors, enzymes, ion channels and kinases in vitro
[7] = Log D7.4; type: physicochemical; conditions: pH 7.4
[8] = Phase 1: safety, adverse events in healthy volunteers; type: in vivo, human
Description: In this study, SAD/MAD cohorts are randomized (3 to 1) to receive Compound 1 or placebo (P). Compound 1 was evaluated first in 4 healthy SAD cohorts and 4 healthy MAD (14-day dosing period) cohorts. Based on the safety, and PK/PD profile from HS, Compound 1 is then evaluated in 1 SCD SAD cohort and 2 SCD MAD cohorts. Specifically, based on the safety and pharmacokinetic/pharmacodynamics (PK/PD) profile in healthy volunteer studies, Compound 1 is evaluated in patients (pts) with SCD, first in a single dose (SD or SAD) cohort and then in multiple-dose (MD or MAD) cohorts (14-day and 12-week). Safety assessments include AEs, vital signs, ECGs and laboratory parameters. PK/PD blood sampling was performed on Day 1 (SAD/MAD) and Day 14 (MAD) and up to 72 h after the last dose and at the end-of-study visit. PD parameters included 2,3-DPG, ATP, and p50 in all cohorts with additional PD studies (including oxygen scan) performed only in the SCD cohorts. PD parameters included 2,3-DPG, ATP, p50, RBC deformability with controlled deoxygenation and reoxygenation (Lorrca® oxygen scan) and varying osmolality (Lorrca® osmoscan)). To maintain study blind, pt identifiers were removed when needed.
Primary Outcome Measures: • 1. Incidence, frequency, and severity of adverse events (AEs) per CTCAE v5.0 of a single ascending dose and multiple ascending doses of Compound 1 in adult healthy volunteers and SCD patients. Incidence of abnormal laboratory test results (clinical chemistry, endocrine hematology, urinalysis). Change from baseline in vital signs (blood pressure, respiratory rate, heart rate, and oral temperature). […] Area under the plasma concentration-time curve from time zero until last quantifiable time point (AUC0-last) • [Time Frame: Up to 3 weeks of testing] • 6. […]
Among the TEAEs reported in Table 13, TEAEs of grade 2 or less related to Compound 1 in the SAD cohorts included headache (n=1) and transient ventricular tachycardia (n=1), each in a different subject. […] The subject's back-up sample was re-assessed independently, and no lipase elevation was detected.

[9] = Phase 1: hematologic and hemolytic parameters in SCD patients; type: in vivo, human; conditions: single 700 mg dose, 24 h

T1 sequence (P10635 whole entry): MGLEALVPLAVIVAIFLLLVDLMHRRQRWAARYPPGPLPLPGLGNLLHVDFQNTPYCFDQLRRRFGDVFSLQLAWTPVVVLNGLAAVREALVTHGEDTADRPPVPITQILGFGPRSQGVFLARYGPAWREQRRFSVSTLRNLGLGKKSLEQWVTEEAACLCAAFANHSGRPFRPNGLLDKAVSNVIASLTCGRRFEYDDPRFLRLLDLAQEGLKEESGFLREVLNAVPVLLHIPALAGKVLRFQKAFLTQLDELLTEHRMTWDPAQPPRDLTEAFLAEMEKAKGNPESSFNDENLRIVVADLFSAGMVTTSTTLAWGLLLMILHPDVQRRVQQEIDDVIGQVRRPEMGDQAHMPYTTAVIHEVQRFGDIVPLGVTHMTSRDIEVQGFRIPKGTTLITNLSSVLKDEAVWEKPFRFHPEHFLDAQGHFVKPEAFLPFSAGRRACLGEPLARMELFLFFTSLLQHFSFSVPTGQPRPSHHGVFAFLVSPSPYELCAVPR

## O=C([C@H](CO)c1ccccc1)N1CC2=C(C1)CN(S(=O)(=O)c1cnc3c(c1)OCCO3)C2 (single isomer, unassigned) [Compound 1]
[1]; 0.033 μM
  mRNA Fold Induction CYP3A4: 0.940 fold and 1.09 fold and 1.25 fold
[1]; 0.1 μM
  mRNA Fold Induction CYP3A4: 1.13 fold and 0.875 fold and 0.889 fold
[1]; 0.33 μM
  mRNA Fold Induction CYP3A4: 1.11 fold and 1.18 fold and 0.836 fold
[1]; 1 μM
  mRNA Fold Induction CYP3A4: 1.41 fold and 1.07 fold and 1.18 fold
[1]; 3.3 μM
  mRNA Fold Induction CYP3A4: 1.84 fold and 1.25 fold and 1.62 fold
[1]; 10 μM
  mRNA Fold Induction CYP3A4: 3.60 fold and 2.23 fold and 1.29 fold
[2]; 0.033 μM
  mRNA Fold Induction CYP1A2: 1.07 fold and 0.989 fold and 1.23 fold
[2]; 0.1 μM
  mRNA Fold Induction CYP1A2: 0.942 fold and 0.958 fold and 1.05 fold
[2]; 0.33 μM
  mRNA Fold Induction CYP1A2: 0.887 fold and 1.10 fold and 1.20 fold
[2]; 1 μM
  mRNA Fold Induction CYP1A2: 0.911 fold and 1.20 fold and 1.14 fold
[2]; 3.3 μM
  mRNA Fold Induction CYP1A2: 0.892 fold and 1.24 fold and 1.11 fold
[2]; 10 μM
  mRNA Fold Induction CYP1A2: 1.02 fold and 1.33 fold and 1.25 fold
[3]; 0.033 μM
  mRNA Fold Induction CYP2B6: 1.17 fold
[3]; 0.1 μM
  mRNA Fold Induction CYP2B6: 1.23 fold and 1.06 fold
[3]; 0.33 μM
  mRNA Fold Induction CYP2B6: 1.10 fold and 0.964 fold
[3]; 1 μM
  mRNA Fold Induction CYP2B6: 1.29 fold
[3]; 3.3 μM
  mRNA Fold Induction CYP2B6: 1.24 fold
[3]; 10 μM
  mRNA Fold Induction CYP2B6: 1.43 fold and 1.21 fold
[3]; human, 1 μM
  fold induction at 1 µM: 1.07
[3]; human, 3.3 μM
  fold induction at 3.3 µM: 1.25
[3]; human, primary cultured human hepatocytes, 0.033 μM
  fold induction at 0.033 µM: 0.982
[3]; human, primary cultured human hepatocytes, 0.1 μM
  fold induction at 0.1 µM: 1.01
[3]; human, primary cultured human hepatocytes, 0.33 μM
  fold induction at 0.33 µM: 1
[3]; human, primary cultured human hepatocytes, 1 μM
  fold induction at 1 µM: 1
[3]; human, primary cultured human hepatocytes, 3.3 μM
  fold induction at 3.3 µM: 1.26
[3]; human, primary cultured human hepatocytes, 10 μM
  fold induction at 10 µM: 1.7
[4]
  IC50: > 30 µM
[5]; SCD patients, single dose 700 mg, 0 h after dose
  Mean percentage change in 2,3-DPG blood levels: −0%
[5]; SCD, single 700 mg dose (FIG. 54B)
  lag of maximum 2,3-DPG decrease behind maximum plasma concentration: about 24 hours
[6]
  preclinical evidence of arrhythmia risk, mutagenicity, or nonspecific binding activity: has not demonstrated any preclinical evidence of arrhythmia risk, mutagenicity, or nonspecific binding activity
[7]
  logD: 1.09
[8]; HS receiving 14 days
  Grade 1 headache incidence: 28%
[8]; HS receiving a single dose
  Grade 1 headache incidence: 4%
[8]; HV SAD and MAD cohorts
  serious adverse events or AEs leading to withdrawal: No serious adverse events (SAEs) or AEs leading to withdrawal
[9]
  mean Hb difference versus placebo: ~0.9 g/dL
